Test results published in ChEMBL document CHEMBL4340557, “Fasudil dichloroacetate (FDCA), an orally available agent with potent therapeutic efficiency on monocrotaline-induced pulmonary arterial hypertension rats” (Bioorg Med Chem Lett, 2019).
Activity calls are given as the source filed them. The calls are words filed in the database; no cut-off is given here.

Legend:
Rattus norvegicus [1] = experiment: (§1) Anti-hypersensitive activity in MCT-induced pulmonary arterial hypertension Sprague-Dawley rat model assessed as mean pulmonary artery pressure at 37.5 mg/kg, po administered daily for 14 days starting from 14 days post-MCT challenge and measured post-last dose by pressure transducer-coupled polygraphy (reference value: 36 +/- 2.83 mmHg); assay type: functional
Rattus norvegicus [2] = experiment: as §1, with “right ventricular systolic” for “mean pulmonary artery”, “59.06” for “36”, “3.26” for “2.83”; assay type: functional
Rattus norvegicus [3] = experiment: as §1, with “dose in presence of DCA” for “dose”; assay type: functional
Rattus norvegicus [4] = experiment: as §1, with “right ventricular systolic” for “mean pulmonary artery”, “dose in presence of DCA” for “dose”, “59.06” for “36”, “3.26” for “2.83”; assay type: functional
Rattus norvegicus [5] = experiment: (§2) Anti-hypersensitive activity in MCT-induced pulmonary arterial hypertension Sprague-Dawley rat model assessed as pulmonary artery medial thickness at 37.5 mg/kg, po administered daily for 14 days starting from 14 days post-MCT challenge and measured post-last dose by hematoxylin and eosin staining-based microscopic analysis (reference value: […] +/- […]); assay type: functional
Rattus norvegicus [6] = experiment: (§3) Anti-hypersensitive activity in MCT-induced pulmonary arterial hypertension Sprague-Dawley rat model assessed as lung fibrosis at 37.5 mg/kg, po administered daily for 14 days starting from 14 days post-MCT challenge and measured post-last dose by Masson's trichrome staining-based microscopic analysis (reference value: 6.12 +/- 1.66%); assay type: functional
[7] = Plasma concentration in Sprague-Dawley rat at 12.48 mg/kg, po measured at 0.25 hrs by LC-MS/MS analysis; assay type: ADME, organism-based
[8] = Plasma concentration in Sprague-Dawley rat at 12.48 mg/kg, po measured at 0.5 hrs by LC-MS/MS analysis; assay type: ADME, organism-based
[9] = Plasma concentration in Sprague-Dawley rat at 12.48 mg/kg, po measured at 1 hr by LC-MS/MS analysis; assay type: ADME, organism-based
[10] = Plasma concentration in Sprague-Dawley rat at 12.48 mg/kg, po measured at 2 hrs by LC-MS/MS analysis; assay type: ADME, organism-based
[11] = Plasma concentration in Sprague-Dawley rat at 12.48 mg/kg, po measured at 4 hrs by LC-MS/MS analysis; assay type: ADME, organism-based
[12] = Elimination rate constant in Sprague-Dawley rat at 12.48 mg/kg, po by LC-MS/MS analysis; assay type: ADME, organism-based; settings: in vivo
[13] = Tmax in Sprague-Dawley rat at 12.48 mg/kg, po by LC-MS/MS analysis; assay type: ADME, organism-based; settings: in vivo
[14] = Cmax in Sprague-Dawley rat at 12.48 mg/kg, po by LC-MS/MS analysis; assay type: ADME, organism-based; design: dose 12.48 mg/kg, route oral; settings: in vivo
[15] = AUC (0 to t) in Sprague-Dawley rat at 12.48 mg/kg, po by LC-MS/MS analysis; assay type: ADME, organism-based; settings: in vivo
[16] = AUC (0 to infinity) in Sprague-Dawley rat at 12.48 mg/kg, po by LC-MS/MS analysis; assay type: ADME, organism-based; design: dose 12.48 mg/kg, time infinity, route oral; settings: in vivo
[17] = AUMC (0 to t) in Sprague-Dawley rat at 12.48 mg/kg, po by LC-MS/MS analysis; assay type: ADME, organism-based; settings: in vivo
[18] = AUMC (0 to infinity) in Sprague-Dawley rat at 12.48 mg/kg, po by LC-MS/MS analysis; assay type: ADME, organism-based; settings: in vivo
[19] = MRT in Sprague-Dawley rat at 12.48 mg/kg, po by LC-MS/MS analysis; assay type: ADME, organism-based; settings: in vivo
Rattus norvegicus [20] = experiment: Hemodynamic activity in Sprague-Dawley rat assessed as effect on mean systemic arterial pressure at 37.5 mg/kg, po administered daily for 2 weeks by pressure transducer-coupled polygraphy; assay type: ADME, organism-based; settings: in vivo, 336 h
Rattus norvegicus [21] = experiment: Hemodynamic activity in Sprague-Dawley rat assessed as effect on mean systemic arterial pressure at 37.5 mg/kg, po administered daily for 2 weeks in presence of DCA by pressure transducer-coupled polygraphy; assay type: ADME, organism-based; settings: in vivo, 336 h
Rattus norvegicus [22] = experiment: as §2, with “dose in presence of DCA” for “dose”; assay type: functional
Rattus norvegicus [23] = experiment: as §3, with “dose in presence of DCA” for “dose”; assay type: functional
Rattus norvegicus [24] = experiment: (§4) Anti-hypersensitive activity in MCT-induced pulmonary arterial hypertension Sprague-Dawley rat model assessed as reduction in cardiomyocyte hypertrophy by measuring cross-sectional area of cardiomyocyte at 37.5 mg/kg, po administered daily for 14 days starting from 14 days post-MCT challenge and measured post-last dose by hematoxylin and eosin staining-based microscopic analysis (reference value: 418 +/- 50.88 micrometer2); assay type: functional
Rattus norvegicus [25] = experiment: as §3, with “reduction in cardiomyocyte hypertrophy by measuring cardiac” for “lung”, “11.74” for “6.12”, “3.24 %)” for “1.66%)”; assay type: functional; design: scale not given: the % may be the effect or the level left
Rattus norvegicus [26] = experiment: as §4, with “dose in presence of DCA” for “dose”; assay type: functional
Rattus norvegicus [27] = experiment: as §3, with “reduction in cardiomyocyte hypertrophy by measuring cardiac” for “lung”, “dose in presence of DCA” for “dose”, “11.74” for “6.12”, “3.24 %)” for “1.66%)”; assay type: functional; design: scale not given: the % may be the effect or the level left
Rattus norvegicus [28] = experiment: Reversal of MCT-induced Sprague-Dawley rat model of elastic fiber hyperplasia at 43.3 mg/kg, po administered daily for 14 days starting from 14 days post-MCT challenge and measured post-last dose by elastic fibres staining-based microscopic analysis; assay type: functional, organism-based

Work on `Cl.O=S(=O)(c1cccc2cnccc12)N1CCCNCC1` [FASUDIL HYDROCHLORIDE] yielded an Activity (Rattus norvegicus [1]) of 32.83 mmHg, an Activity (Rattus norvegicus [2]) of 59.9 mmHg and an Activity (Rattus norvegicus [3]) of 29.83 mmHg. It also gave an Activity (Rattus norvegicus [4]) of 51.13 mmHg, an Activity (Rattus norvegicus [5]) of 0.21 and an Activity (Rattus norvegicus [6]) of 6.41%. The concentration at 0.25 h [7] was 84.2 ng/mL, the concentration at 0.5 h [8] was 23.2 ng/mL and the concentration at 1 h [9] was 17.8 ng/mL. It also gave a concentration at 2 h [10] of 7.01 ng/mL, a concentration at 4 h [11] of 3.85 ng/mL and a k el [12] of 0.000253 s⁻¹. For the same compound, the Tmax [13] was 15 min, the Cmax [14] was 84.2 ng/mL and the AUC(0-t) [15] was 55.4 ng·h/mL. For the same compound, the AUC(0-inf) [16] was 59.8 ng·h/mL, the AUMCt [17] was 52.8 hr.hr.ng/ml and the AUMC [18] was 75.7 hr.hr.ng/ml. The MRT [19] was 72 min, the Activity (Rattus norvegicus [20]) was “Non-Toxic” and the Activity (Rattus norvegicus [21]) was “Non-Toxic”. The Activity (Rattus norvegicus [22]) was 0.2, the Activity (Rattus norvegicus [23]) was 6.71% and the Activity (Rattus norvegicus [24]) was 354.35 um2. The Activity (Rattus norvegicus [25]) was 3.97%, the Activity (Rattus norvegicus [26]) was 341.12 um2 and the Activity (Rattus norvegicus [27]) was 3.84%.

For `O=S(=O)(c1cccc2cnccc12)N1CCCNCC1`, the Activity (Rattus norvegicus [28]) was “Active”.
